Results as given in ChEMBL document CHEMBL3124777, “Synthesis and biological evaluation of thiazoline derivatives as new antimicrobial and anticancer agents” (Eur J Med Chem, 2014).
Converted amounts (≈) assume the structure as drawn. The source made the active and inactive calls. The calls are words filed in the database; no cut-off is given here.

Assays:
NIH3T3 = test: Cytotoxicity against mouse NIH/3T3 cells after 24 hrs by MTT assay; type: cell-based; settings: NIH3T3, 24 h
Fusarium culmorum = test: Antimicrobial activity against wild type Fusarium culmorum after 48 to 72 hrs by microbroth dilution method; type: functional
Bacillus subtilis = test: Antimicrobial activity against Bacillus subtilis NRS-744 after 18 to 24 hrs by microbroth dilution method; type: functional
C6 [1] = test: Cytotoxicity against rat C6 cells assessed as cell viability at 50 ug/ml after 24 hrs by MTT assay relative to control; type: functional; settings: C6, 24 h, read-out: Activity
C6 [2] = test: Inhibition of DNA synthesis in rat C6 cells assessed as BrdU incorporation after 24 hrs by ELISA; type: functional, cell-based
C6 [3] = test: Inhibition of DNA synthesis in rat C6 cells assessed as BrdU incorporation at IC50 after 24 hrs by ELISA; type: functional, cell-based
C6 [4] = test: Cytotoxicity against rat C6 cells assessed as cell viability at 25 ug/ml after 24 hrs by MTT assay relative to control; type: functional; settings: C6, 24 h, read-out: Activity
Micrococcus luteus = test: Antimicrobial activity against Micrococcus luteus NRLL B-4375 after 18 to 24 hrs by microbroth dilution method; type: functional
Trichoderma harzianum = test: Antimicrobial activity against Trichoderma harzianum NRRL 20565 after 48 to 72 hrs by microbroth dilution method; type: functional
C6 [5] = test: Cytotoxicity against rat C6 cells assessed as cell viability at 100 ug/ml after 24 hrs by MTT assay relative to control; type: functional; settings: C6, 24 h, read-out: Activity
Fusarium verticillioides = test: Antimicrobial activity against Fusarium moniliforme NRRL 1866 after 48 to 72 hrs by microbroth dilution method; type: functional
C6 [6] = test: Cytotoxicity against rat C6 cells assessed as cell viability at 200 ug/ml after 24 hrs by MTT assay relative to control; type: functional; settings: C6, 24 h, read-out: Activity
C6 [7] = test: Cytotoxicity against rat C6 cells after 24 hrs by MTT assay; type: functional, cell-based; settings: C6, 24 h
Aspergillus parasiticus = test: Antimicrobial activity against Aspergillus parasiticus NRRL 465 after 48 to 72 hrs by microbroth dilution method; type: functional
Fusarium solani = test: Antimicrobial activity against Fusarium solani NRRL 13414 after 48 to 72 hrs by microbroth dilution method; type: functional
Aspergillus ochraceus = test: Antimicrobial activity against Aspergillus ochraceus NRRL 3174 after 48 to 72 hrs by microbroth dilution method; type: functional
C6 [8] = test: Cytotoxicity against rat C6 cells assessed as cell viability at 6 ug/ml after 24 hrs by MTT assay relative to control; type: functional; settings: C6, 24 h, read-out: Activity
Penicillium chrysogenum = test: Antimicrobial activity against Penicillium chrysogenum NRRL 1951 after 48 to 72 hrs by microbroth dilution method; type: functional
Listeria monocytogenes = test: Antimicrobial activity against Listeria monocytogenes ATCC 7644 after 18 to 24 hrs by microbroth dilution method; type: functional
Candida albicans = test: Antimicrobial activity against Candida albicans ATCC 22019 after 18 to 24 hrs by microbroth dilution method; type: functional
C6 [9] = test: Cytotoxicity against rat C6 cells assessed as cell viability at 12 ug/ml after 24 hrs by MTT assay relative to control; type: functional; settings: C6, 24 h, read-out: Activity
Staphylococcus aureus = test: Antimicrobial activity against Staphylococcus aureus NRRL B-767 after 18 to 24 hrs by microbroth dilution method; type: functional
Escherichia coli = test: Antimicrobial activity against Escherichia coli ATCC 25922 after 18 to 24 hrs by microbroth dilution method; type: functional
Pseudomonas aeruginosa = test: Antimicrobial activity against Pseudomonas aeruginosa […] after 18 to 24 hrs by microbroth dilution method; type: functional

Compound	MIC (Fusarium culmorum) [µg/mL]	MIC (Bacillus subtilis) [µg/mL]	MIC (Micrococcus luteus) [µg/mL]	MIC (Trichoderma harzianum) [µg/mL]	MIC (Fusarium verticillioides) [µg/mL]	MIC (Aspergillus parasiticus) [µg/mL]	MIC (Fusarium solani) [µg/mL]	MIC (Aspergillus ochraceus) [µg/mL]	MIC (Penicillium chrysogenum) [µg/mL]	MIC (Listeria monocytogenes) [µg/mL]	MIC (Candida albicans) [µg/mL]	MIC (Staphylococcus aureus) [µg/mL]	IC50 (NIH3T3) [µg/mL]	viability at 50 µg/mL (C6 [1]) [%]	viability at 25 µg/mL (C6 [4]) [%]	viability at 100 µg/mL (C6 [5]) [%]	viability at 200 µg/mL (C6 [6]) [%]	IC50 (C6 [7]) [µg/mL]	viability at 6 µg/mL (C6 [8]) [%]	viability at 12 µg/mL (C6 [9]) [%]	other results
Cc1ccc(-c2cs/c(=N/NC(=O)CSc3nnnn3-c3ccccc3)n2-c2ccccc2)cc1	125 (≈ 250 µM)	250 (≈ 500 µM)	250 (≈ 500 µM)	125 (≈ 250 µM)	250 (≈ 500 µM)	250 (≈ 500 µM)	250 (≈ 500 µM)	250 (≈ 500 µM)	250 (≈ 500 µM)	250 (≈ 500 µM)	250 (≈ 500 µM)	250 (≈ 500 µM)	> 500	29.5	38.8	28.5	22.2	14.7 (≈ 29.4 µM)	66.8	55.1	inhibition (C6 [2]): Dose-dependent effect; inhibition (C6 [3]): Active; MIC (Escherichia coli): 250 µg/mL (≈ 500 µM); MIC (Pseudomonas aeruginosa): 250 µg/mL (≈ 500 µM)
O=C(CSc1nnnn1-c1ccccc1)N/N=c1/scc(-c2ccccc2)n1-c1ccccc1	125 (≈ 257 µM)	500 (≈ 1030 µM)	250 (≈ 515 µM)	125 (≈ 257 µM)	250 (≈ 515 µM)	250 (≈ 515 µM)	250 (≈ 515 µM)	250 (≈ 515 µM)	250 (≈ 515 µM)	250 (≈ 515 µM)	250 (≈ 515 µM)	250 (≈ 515 µM)	417 (≈ 858 µM)	36.7	42.5	35.8	22.6	8.3 (≈ 17.1 µM)	52.1	47.1	inhibition (C6 [2]): Dose-dependent effect; inhibition (C6 [3]): Active; MIC (Escherichia coli): 250 µg/mL (≈ 515 µM); MIC (Pseudomonas aeruginosa): 250 µg/mL (≈ 515 µM)
COc1ccc(-c2cs/c(=N/NC(=O)CSc3nnc(C)s3)n2-c2ccccc2)cc1	250 (≈ 532 µM)	250 (≈ 532 µM)	250 (≈ 532 µM)	125 (≈ 266 µM)	250 (≈ 532 µM)	250 (≈ 532 µM)	250 (≈ 532 µM)	250 (≈ 532 µM)	250 (≈ 532 µM)	250 (≈ 532 µM)	250 (≈ 532 µM)	250 (≈ 532 µM)	300 (≈ 639 µM)	31.5	42.6	25.9	22.2	18.7 (≈ 39.8 µM)	57.9	53.6	inhibition (C6 [2]): Dose-dependent effect; inhibition (C6 [3]): Active; MIC (Escherichia coli): 250 µg/mL (≈ 532 µM); MIC (Pseudomonas aeruginosa): 250 µg/mL (≈ 532 µM)
Cc1nnc(SCC(=O)N/N=c2/scc(-c3ccc(F)cc3)n2-c2ccccc2)s1	250 (≈ 546 µM)	250 (≈ 546 µM)	250 (≈ 546 µM)	125 (≈ 273 µM)	250 (≈ 546 µM)	250 (≈ 546 µM)	250 (≈ 546 µM)	250 (≈ 546 µM)	250 (≈ 546 µM)	250 (≈ 546 µM)	250 (≈ 546 µM)	250 (≈ 546 µM)	383 (≈ 838 µM)	37.4	50.1	34.9	26.5	27.3 (≈ 59.7 µM)	74.3	73.7	inhibition (C6 [2]): Dose-dependent effect; inhibition (C6 [3]): Active; MIC (Escherichia coli): 250 µg/mL (≈ 546 µM); MIC (Pseudomonas aeruginosa): 250 µg/mL (≈ 546 µM)
Cc1nnc(SCC(=O)N/N=c2/scc(-c3ccc(Cl)cc3)n2-c2ccccc2)s1	250 (≈ 527 µM)	250 (≈ 527 µM)	250 (≈ 527 µM)	125 (≈ 264 µM)	250 (≈ 527 µM)	250 (≈ 527 µM)	250 (≈ 527 µM)	250 (≈ 527 µM)	250 (≈ 527 µM)	250 (≈ 527 µM)	250 (≈ 527 µM)	250 (≈ 527 µM)	253 (≈ 534 µM)	37.9	53.3	34.1	29	28 (≈ 59.1 µM)	82.8	76.6	inhibition (C6 [2]): Dose-dependent effect; inhibition (C6 [3]): Active; MIC (Escherichia coli): 250 µg/mL (≈ 527 µM); MIC (Pseudomonas aeruginosa): 250 µg/mL (≈ 527 µM)

The remaining molecules from weak to strong by MIC (Fusarium culmorum), led by results:

MIC (Fusarium culmorum) [µg/mL]	MIC (Bacillus subtilis) [µg/mL]	MIC (Micrococcus luteus) [µg/mL]	MIC (Trichoderma harzianum) [µg/mL]	MIC (Fusarium verticillioides) [µg/mL]	MIC (Aspergillus parasiticus) [µg/mL]	MIC (Fusarium solani) [µg/mL]	MIC (Aspergillus ochraceus) [µg/mL]	MIC (Penicillium chrysogenum) [µg/mL]	MIC (Listeria monocytogenes) [µg/mL]	MIC (Candida albicans) [µg/mL]	MIC (Staphylococcus aureus) [µg/mL]	Compound	IC50 (NIH3T3) [µg/mL]	viability at 50 µg/mL (C6 [1]) [%]	viability at 25 µg/mL (C6 [4]) [%]	viability at 100 µg/mL (C6 [5]) [%]	viability at 200 µg/mL (C6 [6]) [%]	IC50 (C6 [7]) [µg/mL]	viability at 6 µg/mL (C6 [8]) [%]	viability at 12 µg/mL (C6 [9]) [%]	other results
250 (≈ 551 µM)	500 (≈ 1100 µM)	250 (≈ 551 µM)	250 (≈ 551 µM)	250 (≈ 551 µM)	250 (≈ 551 µM)	250 (≈ 551 µM)	250 (≈ 551 µM)	250 (≈ 551 µM)	250 (≈ 551 µM)	250 (≈ 551 µM)	500 (≈ 1100 µM)	Cc1ccc(-c2cs/c(=N/NC(=O)CSc3nnc(C)s3)n2-c2ccccc2)cc1	373 (≈ 823 µM)	40.6	50.1	31.5	13.3	25.3 (≈ 55.8 µM)	65.9	58.3	inhibition (C6 [2]): Dose-dependent effect; inhibition (C6 [3]): Active; MIC (Escherichia coli): 250 µg/mL (≈ 551 µM); MIC (Pseudomonas aeruginosa): 250 µg/mL (≈ 551 µM)
250 (≈ 557 µM)	500 (≈ 1110 µM)	250 (≈ 557 µM)	125 (≈ 279 µM)	250 (≈ 557 µM)	250 (≈ 557 µM)	250 (≈ 557 µM)	250 (≈ 557 µM)	250 (≈ 557 µM)	250 (≈ 557 µM)	250 (≈ 557 µM)	250 (≈ 557 µM)	Cn1nnnc1SCC(=O)N/N=c1/scc(-c2ccc(C#N)cc2)n1-c1ccccc1	213 (≈ 476 µM)	35.6	43.9	30.9	28.6	23.3 (≈ 51.9 µM)	63.5	53.9	inhibition (C6 [2]): Dose-dependent effect; inhibition (C6 [3]): Active; MIC (Escherichia coli): 250 µg/mL (≈ 557 µM); MIC (Pseudomonas aeruginosa): 250 µg/mL (≈ 557 µM)
250 (≈ 443 µM)	250 (≈ 443 µM)	250 (≈ 443 µM)	125 (≈ 221 µM)	250 (≈ 443 µM)	250 (≈ 443 µM)	250 (≈ 443 µM)	250 (≈ 443 µM)	250 (≈ 443 µM)	250 (≈ 443 µM)	125 (≈ 221 µM)	250 (≈ 443 µM)	O=C(CSc1nnnn1-c1ccccc1)N/N=c1/scc(-c2ccc(Br)cc2)n1-c1ccccc1	433 (≈ 768 µM)	32	47.9	24.3	20.4	21 (≈ 37.2 µM)	61.8	58.6	inhibition (C6 [2]): Dose-dependent effect; inhibition (C6 [3]): Active; MIC (Escherichia coli): 250 µg/mL (≈ 443 µM); MIC (Pseudomonas aeruginosa): 250 µg/mL (≈ 443 µM)
250 (≈ 502 µM)	250 (≈ 502 µM)	250 (≈ 502 µM)	250 (≈ 502 µM)	250 (≈ 502 µM)	250 (≈ 502 µM)	250 (≈ 502 µM)	250 (≈ 502 µM)	250 (≈ 502 µM)	250 (≈ 502 µM)	250 (≈ 502 µM)	500 (≈ 1000 µM)	O=C(CSc1ncccn1)N/N=c1/scc(-c2ccc(Br)cc2)n1-c1ccccc1	273 (≈ 548 µM)	69	72.3	67.6	63.2	> 200	76.4	72.1	MIC (Escherichia coli): 250 µg/mL (≈ 502 µM); MIC (Pseudomonas aeruginosa): 250 µg/mL (≈ 502 µM)
125 (≈ 248 µM)	500 (≈ 993 µM)	250 (≈ 496 µM)	125 (≈ 248 µM)	250 (≈ 496 µM)	250 (≈ 496 µM)	250 (≈ 496 µM)	250 (≈ 496 µM)	250 (≈ 496 µM)	250 (≈ 496 µM)	250 (≈ 496 µM)	250 (≈ 496 µM)	O=C(CSc1nnnn1-c1ccccc1)N/N=c1/scc(-c2ccc(F)cc2)n1-c1ccccc1	207 (≈ 410 µM)	43.7	49.3	35.8	30.6	24.3 (≈ 48.3 µM)	74.9	60	inhibition (C6 [2]): Dose-dependent effect; inhibition (C6 [3]): Active; MIC (Escherichia coli): 250 µg/mL (≈ 496 µM); MIC (Pseudomonas aeruginosa): 250 µg/mL (≈ 496 µM)
